Measured values as given in a melting point compilation (Tetko et al.; mined from patent text by program, amines drawn as free bases though some values may be those of a salt).

| SMILES | melting point |
| --- | --- |
| CC(=O)Nc1ccc(C(C)(C)C)cc1CN(C)C1CCCCC1 | 111 to 112 °C |
| CCSc1nc(-c2ccc(OC)cc2)c(-c2ccc(OC)cc2)s1 | 73 to 75 °C |
| Cc1cc(CNC(=O)c2sc(N3C[C@@H](C)N(Cc4cc(F)cc(F)c4)C3=O)nc2C)no1 | 63 to 66 °C |
| N#Cc1cccc2c1CC(=NN)c1ccc(F)cc1S2 | 178 to 179 °C |
| Cc1cc(C)c2c(c1)C=C(/C=C/C=C/C=C/C(=O)O)CO2 | 208 to 210 °C |
| N#CC12CCCC(C1)C1CCC2C1 (configuration not stated) | 109 to 110 °C |
| Cc1nc(N)sc1-c1cccnc1 | 190 to 191 °C |
| Cc1cccc(N2CCOC2=O)c1CNc1cccn2c(C=O)c(C)nc12 | 196 to 197 °C |
| CC(C)Oc1ccccc1-c1cc(=O)c2cc(C#N)ccc2o1 | 172 to 175 °C |
| C=Cc1cc2c(Cl)cc(F)c(-n3c(=O)cc(C(F)(F)F)n(C)c3=O)c2o1 | 108 to 109 °C |
| COc1ccc2[nH]c(C(C)C)c(C=C3SC(=S)N(CC(=O)O)C3=O)c2c1 | 255 to 260 °C |
| O=c1[nH]c(-c2ccccn2)nc(C(F)(F)F)c1I | 186 to 187 °C |
| COCc1nc2c(NCc3c(C)cccc3C)cc(C(=O)NCCO)cc2n1C | 186 to 187 °C |
| Nc1cccc(/C=C/c2nc(C3CCCC3)cs2)c1 | 59 to 61 °C |
| O=C1CCC2=C1C(c1ccc3nonc3c1)C1=C(CCC1=O)N2 | 272 to 273 °C |
| CC(C)(C)c1ccc2c(c1)CCC1=C2CCC(=O)N1 | 265 to 268 °C |
| COC(=O)c1ccc(S(C)(=O)=O)c(C=O)c1C | 108 to 110 °C |
| CCOC(=O)c1c(-c2ccc(OC)c(OC)c2)c2cc(Cl)ccc2[nH]c1=O | 209 to 210 °C |
| c1ccc2c(c1)CC1=C2CCCC1 | 57 °C |
| Nc1cc(Cl)nc(Cl)c1[N+](=O)[O-] | 136 to 138 °C |
| CCOC(=O)CON(C(=S)Nc1cc(Cl)ccc1C)C(C)C | 83 to 85 °C |
| CCC(Oc1cc(F)ccc1F)C1=NCCN1 (configuration not stated) | 110 °C |

Other lines, results leading:

| melting point | SMILES |
| --- | --- |
| 190 to 193 °C | C[C@H](NN1C(=O)c2ccccc2S1(=O)=O)C(=O)N[C@@H](Cc1ccccc1)C(=O)O |
| 117 to 118 °C | N#CCCc1oc(/C=C/c2ccccc2)nc1-c1ccccc1 |
| 202 to 203 °C | CCC(=O)N1c2cscc2C(=O)N(C)c2ccccc21 |
| 170 to 171 °C | CN(C)c1ccc2c(c1)nc(/C=C/c1ccccc1)n2-c1ccccn1 |
| 126 to 128 °C | O=C(O)c1cc(Oc2ccccc2)ccc1O |
| 174 to 177 °C | Cc1[nH]c2ccc(/C=C/C(=O)OCc3ccccc3)cc2c1CN(C)C |
| 248 to 249 °C | O=C(O)Cc1ccc(-c2cn3ccsc3n2)cc1 |
| 72 to 74 °C | CC(OCc1cc2cc(C(F)(F)F)ccc2n1S(=O)(=O)c1ccccc1)C(=O)O (configuration not stated) |
| 195 °C | O=c1[nH]c2cccnc2n1-c1ccccc1F |
| 140 to 141 °C | Cn1ncc2c1-c1c(Sc3ccccc3)sc(C(N)=O)c1CC2 |
| 160 to 161 °C | O=c1c2ccccc2ccc2cc(Cl)ccc12 |
| 284 to 286 °C | COc1ccc(N2CCOCC2)c2sc(-c3nc4ccccc4[nH]3)nc12 |
| 187 °C | c1ccc2c(c1)Cc1cc(C3(Cn4cncn4)OCCO3)ccc1-2 |
| 116 to 118 °C | O=C(Nc1ccc(C2(F)CCN(C(=O)OCc3ccccc3)CC2)c(F)c1)OCc1ccccc1 |
| 145 to 146 °C | CCOC(=O)c1[nH]cc(-c2ccc(F)cc2)c1-c1ccccc1 |
| 196 to 198 °C | Nc1nccc(-c2c[nH]c3nccc(CCc4ccccc4)c23)n1 |
| 90 to 95 °C | Cc1oncc1C(=O)Nc1ccc(-n2nc(C(F)(F)F)cc2C2CC2)cc1 |
| 158 to 160 °C | O=C1CC(C(O)(c2ccc(F)cc2)c2ccc(F)cc2)CN1Cc1ccccc1 (configuration not stated) |
| 109 to 114 °C | COc1ccc2c(c1)c(Cc1csc(-c3ccncc3)n1)c(C)n2C(=O)c1ccc(Cl)cc1 |
| 92.9 °C | CNC(=O)CN(c1ccc(Cl)cc1Cc1c(F)cccc1F)S(=O)(=O)c1ccc(OC)c(OC)c1 |
